Test results: US9597416B2, “Fluorescent membrane intercalating probes and methods for their use” (PHANOS TECHNOLOGIES, INC., priority 2005, dated 2017)

Columns and labels:
[1] = Absorbance/emission spectra in ethanol; type: physicochemical; settings: for Abs Max / Flourescence Ex Max / Fluorescence Em Max: 0.25 μM solutions in ethanol; for Extinction Coefficient: ethanol, approximate, maximum absorbance divided by nominal concentration
Procedure: Referring now to Tables 1 and 2, there are shown the absorbance and emission maxima of some example compounds of the present invention. Absorption and Fluorescence spectra were run using 0.25 μM solutions in ethanol on a Jasco, Inc. UV-530 UV/VIS spectrophotometer and FP 750 spectrofluorometer, respectively. Approximate extinction coefficients were estimated from the absorbance scans by dividing the maximum absorbance by the nominal concentration ([…]).

[2] = tested on: U937 cells; assay: Probe effects on cell viability and cell growth (Maximum Tolerated Concentration); type: cell-based; settings: for Maximum Tolerated Concentration (MTC): cultured U937 cells, 10^7 cells/ml, labeled 5 min in Diluent C, cultured 22-24 hours
Procedure: U937 cells were stained at a concentration of 10^7 cells/ml with increasing concentrations of probe by rapidly admixing 2× cells suspended in Diluent C with 2× probe in Diluent C. After 5 minutes at room temperature, the staining was stopped by the addition of cell culture medium. Cells were then washed thoroughly and cultured under standard conditions for 22-24 hours. Cell numbers were compared to those in a control culture treated with diluent alone.
Cells labeled with both dyes were also monitored daily for changes in mean fluorescence intensity (MFI), using a FACSAria flow cytometer with 488 nm excitation for PKH26 and 405 nm excitation for F305B. […] However, initial MFI's were high enough to detect at least 4 and possibly 5 or 6 cell doublings before the fluorescence intensity distribution of labeled cells began to overlap substantially with that of unstained cells. Color overlap of F305B into filter windows used for detection of 488 nm or 633 nm excited dyes was minimal. Since 405 nm excited dyes are less commonly available than 488 nm and 633 nm excited dyes of this nature were therefore deemed useful, despite their somewhat lesser signal:noise ratio, for providing increased flexibility in choice of spectral window to be used for monitoring membrane labeled cells and their proliferation.
Cells labeled with both dyes were also monitored daily for changes in mean fluorescence intensity (MFI), using a FACSCalibur flow cytometer with 488 nm excitation for PKH26 and 633 nm excitation for F308B.
Cells labeled either with PKH26 or with F319B were also monitored daily for changes in mean fluorescence intensity (MFI), using a FACSAria flow cytometer with 488 nm excitation for PKH26 and 785 nm excitation for F319B. […] Although the cells could only be followed for 4-5 doublings when labeled with PKH26, at least 6 doublings could be monitored using F319B before the fluorescence intensity distribution of labeled cells began to overlap substantially with that of unstained cells. Color overlap of F319B was minimal in filter windows used for detection of fluorescein, phycoerthyrin (PE), allophycocyanin (APC), and PE-Texas Red, PE-Cy5 or PerCP-Cy5.5 tandem conjugate dyes.

[3] = Solubility in Diluent C vs ethanol control; type: physicochemical; settings: 1:50 dilution of 1 mM stock, 30 min room temperature, centrifuged, % of absorbance of 100% ethanol control
Procedure: Effects of the various combinations of asymmetrical and symmetrical side chains and methine bridges on the solubility of the compounds of the present invention were examined. Solubility in a commercially available probe diluent. Diluent C, was also tested. Triplicate 1:50 dilutions of stock 1 mM probe solutions were made in either ethanol or test diluent. After 30 minutes at room temperature solutions were centrifuged at 10,000×g for 10 minutes to remove any microagregates and 100 ul aliquots were transferred to 2.0 ml of ethanol for absorbance determinations. Based on the teachings of Leung et al. and on solubility specifications found on Sigma Certificates of Analysis for the commercial diluent (diluent supernatant absorbance at 30 minutes at least 60% of ethanol supernatant absorbance after 30 minutes), a preliminary specification at least 60% of the ethanol control was set as a surrogate for solubility sufficient to achieve cell labeling with S/N ratios greater than 100 and to minimize potential problems with brightness or reproducibility of labeling. Certain example compounds were soluble after 30 minutes in Diluent C.
Diluent C is a commercially available isotonic salt-free vehicle (Sigma-Aldrich Chemical Company) that is commonly used.

[4] = U937 cells stained at each dye's MTC, monitored daily for 4 days (approximately 4 doublings)

For `CCCCCCCCCCCCCCCCN1/C(=C\C=C\c2oc3ccc(C(C)(C)C)cc3[n+]2CCCCCCCCCCCCCCCC)Oc2ccc(C(C)(C)C)cc21.[I-]` [Compound F304B], the “Abs Max” value [1] was 493 nm, the “Flourescence Ex Max” value [1] was 494 nm and the “Fluorescence Em Max” value [1] was 508 nm. For the same compound, the “Extinction Coefficient” value [1] was 160,000 M^−1cm^−1.
In the case of `CCCCCCCCCCCCCCCCCCCCCC[N+]1=C(/C=C/C=C/C=C2/N(CCCCCCCCCCCCCC)c3ccc([N+](=O)[O-])cc3C2(C)C)C(C)(C)c2ccccc21.[I-]` [Compound F308B], the “cell growth compared with PKH26-stained cells” value [2, 4] is reported as “comparable growth”, the “Maximum Tolerated Concentration (MTC)” value [2] is reported as 15 µmol/L and the “Abs Max” value [1] is reported as 649 nm. The “Flourescence Ex Max” value [1] was 493 nm, the “Fluorescence Em Max” value [1] was 671 nm and the “Extinction Coefficient” value [1] was 134,610 M^−1cm^−1.
For `CCCCCCCCCCCCCCCCCCCCCC[n+]1c(/C=C2\Sc3ccccc3N2CCCCCCCCCCCCCC)sc2ccccc21.[I-]` [Compound F305B], the “cell growth compared with PKH26-stained cells” value [2, 4] was “comparable growth”, the “Maximum Tolerated Concentration (MTC)” value [2] was 20 µmol/L and the “Abs Max” value [1] was 425 nm. The “Flourescence Ex Max” value [1] was 420 nm, the “Fluorescence Em Max” value [1] was 461 nm and the “Extinction Coefficient” value [1] was 81,200 M^−1cm^−1.
With `CCCCCCCCCCCCCCCCCCCCCC[N+]1=C(/C=C/C=C/C=C/C=C2/N(CCCCCCCCCCCCCC)c3ccc([N+](=O)[O-])cc3C2(C)C)C(C)(C)c2ccccc21.[I-]` [Compound F319B] the “cell growth compared with PKH26-stained cells” value ([2]; U937 cells, F319B 12.5 micromol/L vs PKH26 12 micromol/L, monitored daily for 6 days) was “comparable growth”, the “Maximum Tolerated Concentration (MTC)” value [2] was 20 µmol/L and the “Abs Max” value [1] was 743 nm. The “Fluorescence Em Max” value [1] was 776 nm and the “Extinction Coefficient” value [1] was 112,500 M^−1cm^−1.
In the case of `CCCCCCCCCCCCCCCCCCCCCC[N+]1=C(/C=C/C=C/C=C/C=C2/N(CCCCCCCCCCCCCC)c3ccc4ccccc4c3C2(C)C)C(C)(C)c2c1ccc1ccccc21.[I-]` [Compound F277A], the “Abs Max” value [1] is reported as 788 nm, the “Flourescence Ex Max” value [1] is reported as 790 nm and the “Fluorescence Em Max” value [1] is reported as 814 nm. For the same compound, the “Extinction Coefficient” value [1] was 205,400 M^−1cm^−1 and the “Solubility >60% of EtOH Control @ 30 min” value [3] was 95%.
For `CCCCCCCCCCCCCCCCCCN1/C(=C\C=C\c2oc3ccc(C(C)(C)C)cc3[n+]2CCCCCCCCCCCCCCCCCC)Oc2ccc(C(C)(C)C)cc21.[I-]` [Compound F306B], the “Abs Max” value [1] was 492 nm, the “Flourescence Ex Max” value [1] was 493 nm and the “Fluorescence Em Max” value [1] was 508 nm. The “Extinction Coefficient” value [1] was 135,000 M^−1cm^−1.
